Patent US8778896B2, “Levoisovalerylspiramycin I, II or III, preparations, preparation methods and uses thereof” (Shenyang Tonglian Group Co., Ltd., priority 2010, dated 2014)
Converted amounts (≈) assume the structure as drawn.

Tests used:
[1] = system: pyogenic streptococcus 102; assay: MIC against the infecting test organism; type: cell-based; conditions: read-out: MIC
staphylococcus aureus76 [2] = assay: MIC against the infecting test organism; type: cell-based, staphylococcus aureus; conditions: read-out: MIC
[3] = Acute toxicity on mice via oral administration; conditions: mouse, in vivo, po, 4000 mg/kg
Method: Both mice and rats take drugs orally (levoisovalerylspiramycin I, II and III prepared in Embodiment 1)
After observing the mice and rats for two days before test, and those without abnormal conditions is carried out test. Don't give anything to eat to mice and rats overnight before test. […] In this test, feed drugs to mice and rats respectively as per 4000 mg/kg, wherein, mice follow 100 mg/ml, with intragastric administration capacity of 0.6-0.8 ml per one, while rats 173 mg/ml, with intragastric administration capacity of 0.8˜1.0 ml/50 g. Observe those taking drugs for one week for toxic reaction and death.

[4] = system: streptococcus pneumoniae57; assay: MIC against the infecting test organism; type: cell-based, streptococcus pneumoniae; conditions: read-out: MIC
[5] = system: pyogenic streptococcus 772; assay: Curative effect on mouse with abdominal infection (ED50); type: in vivo; conditions: Streptococcus, 772, 168 h, pyogenic streptococcus 772, challenging dose 6.9 × 10^3 CFU/0.5 ml, deaths in 7 days, Bliss, read-out: ED50
Method: (§1) Test method: preparation of infection bacterial liquid: taking out the test bacterial liquid which is kept in a refrigerator at −80[…] to room temperature for about 1 h, then inoculating streptococcus pneumonia, pyogenic streptococcus and enterococcus absorbing 0.1 ml bacterial liquid respectively to 2 ml MH broth (add 10% inactivated horse serum), and inoculating 0.1 ml bacterial liquid of staphylococcus aureus to 2 ml MH broth according to the same method above; putting it in an incubator at 37[…] to be cultivated for 18 h, to obtain original bacterial liquid; diluting the original bacterial liquid with 5% gastric mucin to make animals infected with 100% lethal bacteria, to obtain infection bacterial liquid.
(§2) The clinical route of administration of carrimycin is proposed to be oral administration, thus intragastric administration is adopted in carrimychin test. Levoisovalerylspiramycin I (obtained in Embodiment 1) and of crystalline compound of levoisovalerylspiramycin I (prepared in Embodiment 27) are fed to animals via […].
(§3) After the mice are infected, respectively feed each mouse 0.2 ml via intragastric administration at 0.5 to 6 h, and they have no adverse reaction. Observe the number of deaths in 7 days, and calculate the 50% effective dose (ED50) of each drug for the infected mouse and compare the protective effect of drugs by Bliss program.

[6] = system: pyogenic streptococcus 102; assay: as above; type: in vivo; conditions: Streptococcus, 102, 168 h, pyogenic streptococcus 102, challenging dose 7.8 × 10^4 CFU/0.5 ml, deaths in 7 days, Bliss, read-out: ED50
Method: as §1, §2, §3

[7] = system: pyogenic streptococcus 119; assay: as above; type: in vivo; conditions: Streptococcus, 119, 168 h, pyogenic streptococcus 119, challenging dose 4.9 × 10^4 CFU/0.5 ml, deaths in 7 days, Bliss, read-out: ED50
Method: as §1, §2, §3

[8] = system: staphylococcus aureus (155); assay: Clinical isolates, agar double dilution method; type: cell-based; conditions: 155 clinical isolates of staphylococcus aureus; for MIC50: read-out: MIC50; for MIC90: read-out: MIC90
[9] = system: streptococcus pneumoniae3; assay: Curative effect on mouse with abdominal infection (ED50); type: in vivo, streptococcus pneumoniae; conditions: Streptococcus, 168 h, streptococcus pneumoniae3, challenging dose 6.4 × 10^4 CFU/0.5 ml, deaths in 7 days, Bliss, read-out: ED50
Method: as §1, §2, §3

[10] = system: streptococcus pneumoniae18; assay: as above; type: in vivo, streptococcus pneumoniae; conditions: Streptococcus, 168 h, streptococcus pneumoniae18, challenging dose 9.6 × 10^4 CFU/0.5 ml, deaths in 7 days, Bliss, read-out: ED50
Method: as §1, §2, §3

[11] = system: streptococcus pneumoniae57; assay: as above; type: in vivo, streptococcus pneumoniae; conditions: Streptococcus, 168 h, streptococcus pneumoniae57, challenging dose 8.8 × 10^4 CFU/0.5 ml, deaths in 7 days, Bliss, read-out: ED50
Method: as §1, §2, §3

gonococcus (10) = assay: Clinical isolates, agar double dilution method; type: cell-based; conditions: 10 clinical isolates of gonococcus; for MIC50: read-out: MIC50; for MIC90: read-out: MIC90
enterococcus32 = assay: MIC against the infecting test organism; type: cell-based, enterococcus; conditions: Enterococcus, read-out: MIC
staphylococcus aureus16 [12] = assay: MIC against the infecting test organism; type: cell-based, staphylococcus aureus; conditions: read-out: MIC
enterococcus (106) = assay: Clinical isolates, agar double dilution method; type: cell-based; conditions: 106 clinical isolates of enterococcus; for MIC50: read-out: MIC50; for MIC90: read-out: MIC90
staphylococcus aureus76 [13] = assay: Curative effect on mouse with abdominal infection (ED50); type: in vivo, staphylococcus aureus; conditions: Staphylococcus, AUREUS76, 168 h, staphylococcus aureus76, challenging dose 5.8 × 10^4 CFU/0.5 ml, deaths in 7 days, Bliss, read-out: ED50
Method: as §1, §2, §3

staphylococcus aureus16 [14] = assay: as above; type: in vivo, staphylococcus aureus; conditions: Staphylococcus, AUREUS16, 168 h, staphylococcus aureus16, challenging dose 5.2 × 10^3 CFU/0.5 ml, deaths in 7 days, Bliss, read-out: ED50
Method: as §1, §2, §3

staphylococcus aureus21 = assay: as above; type: in vivo, staphylococcus aureus; conditions: Staphylococcus, AUREUS21, 168 h, staphylococcus aureus21, challenging dose 4.2 × 10^4 CFU/0.5 ml, deaths in 7 days, Bliss, read-out: ED50
Method: as §1, §2, §3

staphylococcus aureus12 [15] = assay: as above; type: in vivo, staphylococcus aureus; conditions: Staphylococcus, AUREUS12, 168 h, staphylococcus aureus12, challenging dose 4.8 × 10^4 CFU/0.5 ml, deaths in 7 days, Bliss, read-out: ED50
Method: as §1, §2, §3

staphylococcus aureus12 [16] = assay: MIC against the infecting test organism; type: cell-based, staphylococcus aureus; conditions: read-out: MIC
[17] = system: hemophilus influenzae (37); assay: Clinical isolates, agar double dilution method; type: cell-based; conditions: 37 clinical isolates of hemophilus influenzae; for MIC50 / MIC90: Haemophilus influenzae; for MIC50: read-out: MIC50; for MIC90: read-out: MIC90
[18] = system: pyogenic streptococcus 772; assay: MIC against the infecting test organism; type: cell-based; conditions: read-out: MIC
[19] = system: pyogenic streptococcus (93); assay: Clinical isolates, agar double dilution method; type: cell-based; conditions: 93 clinical isolates of pyogenic streptococcus; for MIC50: read-out: MIC50; for MIC90: read-out: MIC90

Structure (SMILES): CCC(=O)OC1CC(=O)OC(C)C/C=C/C=C/C(OC2CCC(N(C)C)C(C)O2)C(C)CC(CC=O)C(OC2OC(C)C(OC3CC(C)(O)C(OC(=O)CC(C)C)C(C)O3)C(N(C)C)C2O)C1OC (stereo not drawn) [Levoisovalerylspiramycin III, levoisovalerylspiramycin III]
- MIC [1]: 0.12 µg/mL (≈ 0.122 µM)
- MIC (staphylococcus aureus76 [2]): 0.25 µg/mL (≈ 0.254 µM)
- LD50 at 1 week [3]: > 4000 mg/kg
- Mortality rate (%) ([3]; 1 week): 35%
- mortality ([3]; 1 week): 7
- MIC [4]: 0.06 µg/mL (≈ 0.061 µM)
- ED50 [5]: 24.6 mg/kg
- ED50 [6]: 63.2 mg/kg
- ED50 [7]: 52.8 mg/kg
- MIC50 [8]: 2 µg/mL (≈ 2.03 µM)
- MIC90 [8]: 32 µg/mL (≈ 32.5 µM)
- ED50 [9]: 8.99 mg/kg
- ED50 [10]: 8.98 mg/kg
- ED50 [11]: 13.1 mg/kg
- MIC range (gonococcus (10)): 0.12 to 16 µg/mL
- MIC50 (gonococcus (10)): 1 µg/mL (≈ 1.02 µM)
- MIC90 (gonococcus (10)): 4 µg/mL (≈ 4.07 µM)
- MIC (enterococcus32): 0.25 µg/mL (≈ 0.254 µM)
- MIC (staphylococcus aureus16 [12]): 0.25 µg/mL (≈ 0.254 µM)
- MIC50 (enterococcus (106)): 2 µg/mL (≈ 2.03 µM)
- MIC90 (enterococcus (106)): 64 µg/mL (≈ 65.1 µM)
- ED50 (staphylococcus aureus76 [13]): 22.3 mg/kg
- ED50 (staphylococcus aureus16 [14]): 20.9 mg/kg
- ED50 (staphylococcus aureus21): 38.9 mg/kg
- ED50 (staphylococcus aureus12 [15]): 108 mg/kg
- MIC (staphylococcus aureus12 [16]): 1 µg/mL (≈ 1.02 µM)
- MIC range [17]: 0.03 to 32 µg/mL
- MIC50 [17]: 0.12 µg/mL (≈ 0.122 µM)
- MIC90 [17]: 1 µg/mL (≈ 1.02 µM)
- MIC [18]: 0.06 µg/mL (≈ 0.061 µM)
- MIC50 [19]: 0.25 µg/mL (≈ 0.254 µM)
- MIC90 [19]: 32 µg/mL (≈ 32.5 µM)

Structure (SMILES): CC[C@H]1OC(=O)[C@H](C)[C@@H](O[C@H]2C[C@@](C)(OC)[C@@H](O)[C@H](C)O2)[C@H](C)[C@@H](O[C@@H]2O[C@H](C)C[C@H](N(C)C)[C@H]2O)[C@](C)(O)C[C@@H](C)CN(C)[C@H](C)[C@@H](O)[C@]1(C)O [azithromycin, reference compound]
- MIC [1]: 0.5 µg/mL (≈ 0.668 µM)
- MIC (staphylococcus aureus76 [2]): 1 µg/mL (≈ 1.34 µM)
- MIC [4]: 0.12 µg/mL (≈ 0.16 µM)
- ED50 [5]: 46.9 mg/kg
- ED50 [6]: 159 mg/kg
- ED50 [7]: 68.5 mg/kg
- MIC50 [8]: 2 µg/mL (≈ 2.67 µM)
- MIC90 [8]: > 64 µg/mL
- ED50 [9]: 18.3 mg/kg
- ED50 [10]: 14.9 mg/kg
- ED50 [11]: 19 mg/kg
- MIC range (gonococcus (10)): 0.12 to 64 µg/mL
- MIC50 (gonococcus (10)): 2 µg/mL (≈ 2.67 µM)
- MIC90 (gonococcus (10)): 8 µg/mL (≈ 10.7 µM)
- MIC (enterococcus32): 1 µg/mL (≈ 1.34 µM)
- MIC (staphylococcus aureus16 [12]): 0.5 µg/mL (≈ 0.668 µM)
- MIC50 (enterococcus (106)): 8 µg/mL (≈ 10.7 µM)
- MIC90 (enterococcus (106)): > 64 µg/mL
- ED50 (staphylococcus aureus76 [13]): 58.8 mg/kg
- ED50 (staphylococcus aureus16 [14]): 32 mg/kg
- ED50 (staphylococcus aureus21): 143 mg/kg
- ED50 (staphylococcus aureus12 [15]): 120 mg/kg
- MIC (staphylococcus aureus12 [16]): 2 µg/mL (≈ 2.67 µM)
- MIC50 [17]: 0.25 µg/mL (≈ 0.334 µM)
- MIC90 [17]: 2 µg/mL (≈ 2.67 µM)
- MIC [18]: 0.25 µg/mL (≈ 0.334 µM)
- MIC50 [19]: 0.5 µg/mL (≈ 0.668 µM)
- MIC90 [19]: > 64 µg/mL

Structure (SMILES): CC[C@H]1OC(=O)[C@H](C)[C@@H](O[C@H]2C[C@@](C)(OC)[C@@H](O)[C@H](C)O2)[C@H](C)[C@@H](O[C@@H]2O[C@H](C)C[C@H](N(C)C)[C@H]2O)[C@](C)(O)C[C@@H](C)C(=O)[C@H](C)[C@@H](O)[C@]1(C)O [erythrocin, reference compound]
- MIC [1]: 0.5 µg/mL (≈ 0.681 µM)
- MIC (staphylococcus aureus76 [2]): 1 µg/mL (≈ 1.36 µM)
- MIC [4]: 0.25 µg/mL (≈ 0.341 µM)
- ED50 [5]: 101 mg/kg
- ED50 [6]: 361 mg/kg
- ED50 [7]: 234 mg/kg
- MIC50 [8]: 1 µg/mL (≈ 1.36 µM)
- MIC90 [8]: > 64 µg/mL
- ED50 [9]: 85.1 mg/kg
- ED50 [10]: 57.1 mg/kg
- ED50 [11]: 102 mg/kg
- MIC range (gonococcus (10)): 0.12 to 64 µg/mL
- MIC50 (gonococcus (10)): 1 µg/mL (≈ 1.36 µM)
- MIC90 (gonococcus (10)): 8 µg/mL (≈ 10.9 µM)
- MIC (enterococcus32): 2 µg/mL (≈ 2.73 µM)
- MIC (staphylococcus aureus16 [12]): 1 µg/mL (≈ 1.36 µM)
- MIC50 (enterococcus (106)): 4 µg/mL (≈ 5.45 µM)
- MIC90 (enterococcus (106)): > 64 µg/mL
- ED50 (staphylococcus aureus76 [13]): 64.2 mg/kg
- ED50 (staphylococcus aureus16 [14]): 82.4 mg/kg
- ED50 (staphylococcus aureus21): 214 mg/kg
- ED50 (staphylococcus aureus12 [15]): 266 mg/kg
- MIC50 [17]: 0.06 µg/mL (≈ 0.0818 µM)
- MIC90 [17]: 32 µg/mL (≈ 43.6 µM)
- MIC [18]: 0.5 µg/mL (≈ 0.681 µM)
- MIC50 [19]: 0.5 µg/mL (≈ 0.681 µM)
- MIC90 [19]: > 64 µg/mL
